Measured values: ChEMBL document CHEMBL1201862, “PubChem BioAssay data set” (2004)
Activity calls are given as the source filed them.

Assays:
[1] = viability of uninfected HEp-2 cells – cell-based, HTS, cytotoxicity control for RSV inhibitor project, dose response (AID 2410); type: functional; conditions: human respiratory syncytial virus
[2] = biological target: Cytochrome P450 3A4 (Homo sapiens, UniProt P08684);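 also: CYP3A4 tested as one member of a cytochrome P450 panel screen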
[3] = biological target: Protein Wnt-3a (Mus musculus, UniProt P27467); test: antagonism of Wnt3a pathway luciferase reporter – Wnt-LIGHT cells, luminescence, selectivity assay for Gli-SUFU antagonist project, dose response (AID 651570); type: functional; conditions: read-out: IC50_Mean;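 also: Wnt-LIGHT reporter cells stimulated with conditioned medium from Wnt3a-producing cells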
Protein Wnt-3a, sequence (P27467 whole entry): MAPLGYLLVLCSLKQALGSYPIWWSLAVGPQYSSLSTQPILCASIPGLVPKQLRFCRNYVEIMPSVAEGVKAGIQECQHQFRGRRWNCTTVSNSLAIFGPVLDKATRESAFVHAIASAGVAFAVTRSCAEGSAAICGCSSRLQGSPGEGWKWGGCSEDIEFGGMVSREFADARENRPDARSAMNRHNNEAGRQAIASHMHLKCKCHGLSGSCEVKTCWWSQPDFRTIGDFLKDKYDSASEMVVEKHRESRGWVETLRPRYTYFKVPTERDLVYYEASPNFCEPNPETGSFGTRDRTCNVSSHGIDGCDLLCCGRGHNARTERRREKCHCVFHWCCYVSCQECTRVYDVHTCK

[4] = NIH-3T3 fibroblast cytotoxicity, dose response, cytotoxicity control, cell-based, fluorescence, Alamar Blue, secondary assay (AID 2327); type: functional;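 also: NIH-3T3 mouse fibroblasts cultured with fluconazole at 8 µg/mL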
[5] = biological target: T1, Histone-lysine N-methyltransferase NSD2 (Homo sapiens, UniProt O96028); type: biochemical
T1 sequence (O96028 whole entry): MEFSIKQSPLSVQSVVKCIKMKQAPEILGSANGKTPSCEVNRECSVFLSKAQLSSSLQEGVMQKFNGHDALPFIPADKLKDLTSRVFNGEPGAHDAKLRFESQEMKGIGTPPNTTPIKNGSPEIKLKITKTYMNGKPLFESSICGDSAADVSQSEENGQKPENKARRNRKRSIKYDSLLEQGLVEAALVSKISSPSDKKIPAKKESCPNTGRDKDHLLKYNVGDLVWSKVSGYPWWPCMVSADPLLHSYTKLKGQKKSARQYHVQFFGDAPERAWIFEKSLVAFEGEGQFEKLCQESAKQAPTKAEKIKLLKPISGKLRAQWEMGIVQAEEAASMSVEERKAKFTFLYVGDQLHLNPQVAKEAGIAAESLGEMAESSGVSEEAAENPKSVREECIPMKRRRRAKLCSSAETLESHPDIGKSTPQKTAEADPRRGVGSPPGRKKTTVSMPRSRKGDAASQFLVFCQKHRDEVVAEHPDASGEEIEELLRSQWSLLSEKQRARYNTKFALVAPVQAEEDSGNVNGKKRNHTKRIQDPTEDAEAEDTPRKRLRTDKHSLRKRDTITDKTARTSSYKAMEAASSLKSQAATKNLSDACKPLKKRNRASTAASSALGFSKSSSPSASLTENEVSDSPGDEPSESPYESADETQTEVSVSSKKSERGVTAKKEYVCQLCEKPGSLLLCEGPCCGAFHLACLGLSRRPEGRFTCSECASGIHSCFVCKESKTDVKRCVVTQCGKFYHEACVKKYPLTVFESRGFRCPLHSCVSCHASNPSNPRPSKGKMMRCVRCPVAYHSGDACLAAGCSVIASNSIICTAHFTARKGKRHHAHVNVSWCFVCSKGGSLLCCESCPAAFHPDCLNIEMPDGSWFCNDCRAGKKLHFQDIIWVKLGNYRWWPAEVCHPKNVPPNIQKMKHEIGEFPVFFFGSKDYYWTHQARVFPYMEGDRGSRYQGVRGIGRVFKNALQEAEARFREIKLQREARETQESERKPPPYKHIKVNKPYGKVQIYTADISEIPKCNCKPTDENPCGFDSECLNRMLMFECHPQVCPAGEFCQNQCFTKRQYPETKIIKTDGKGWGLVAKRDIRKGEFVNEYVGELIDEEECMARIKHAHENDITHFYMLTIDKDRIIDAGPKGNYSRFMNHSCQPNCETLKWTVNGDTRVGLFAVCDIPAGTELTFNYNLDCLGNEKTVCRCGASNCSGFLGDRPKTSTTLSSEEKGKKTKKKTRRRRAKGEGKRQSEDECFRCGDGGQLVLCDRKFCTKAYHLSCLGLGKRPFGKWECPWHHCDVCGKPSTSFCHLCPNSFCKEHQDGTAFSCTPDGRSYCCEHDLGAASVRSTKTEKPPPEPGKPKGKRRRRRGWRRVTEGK

[6] = fluconazole-exposed Candida albicans growth modulators – fluorescence, retest, confirmation (AID 2467); type: functional, cell-based
[7] = biological target: Genome polyprotein (dengue virus type 2, UniProt P29990); test: flavivirus cap methylation enzyme inhibition – biochemical, confirmation dose response, primary screen (AID 588689); type: functional
Genome polyprotein, sequence (P29990 2492-3391 limits assumed): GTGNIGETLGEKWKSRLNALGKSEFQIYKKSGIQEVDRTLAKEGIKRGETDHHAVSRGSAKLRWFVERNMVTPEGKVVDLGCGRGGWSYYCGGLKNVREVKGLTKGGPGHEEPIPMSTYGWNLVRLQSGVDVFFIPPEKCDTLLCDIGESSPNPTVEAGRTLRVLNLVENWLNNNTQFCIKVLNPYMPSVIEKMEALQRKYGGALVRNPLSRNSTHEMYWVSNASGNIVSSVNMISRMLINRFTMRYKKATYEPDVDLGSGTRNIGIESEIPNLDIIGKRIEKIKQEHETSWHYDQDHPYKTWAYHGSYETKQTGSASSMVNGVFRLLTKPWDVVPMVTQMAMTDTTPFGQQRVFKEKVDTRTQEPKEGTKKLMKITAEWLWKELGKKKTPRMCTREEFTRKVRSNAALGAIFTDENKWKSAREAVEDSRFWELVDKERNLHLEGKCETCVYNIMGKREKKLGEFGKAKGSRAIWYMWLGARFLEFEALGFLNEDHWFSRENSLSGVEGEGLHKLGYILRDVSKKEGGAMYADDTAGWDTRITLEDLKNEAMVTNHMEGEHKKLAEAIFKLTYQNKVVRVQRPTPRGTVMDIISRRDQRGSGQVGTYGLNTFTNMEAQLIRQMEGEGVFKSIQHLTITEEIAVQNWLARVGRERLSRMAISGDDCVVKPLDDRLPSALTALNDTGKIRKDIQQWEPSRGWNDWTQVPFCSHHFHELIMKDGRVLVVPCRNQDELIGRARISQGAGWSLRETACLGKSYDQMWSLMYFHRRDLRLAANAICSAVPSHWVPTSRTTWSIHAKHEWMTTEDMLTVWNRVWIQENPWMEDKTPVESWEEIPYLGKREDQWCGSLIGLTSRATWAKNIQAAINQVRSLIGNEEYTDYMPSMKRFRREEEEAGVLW

[8] = blockers of CRF-binding protein–CRF-R2 complex – cell-based, uHTS hits, 384-well, dose response (AID 651639); type: functional, Homo sapiens; conditions: read-out: IC50_Mean
[9] = biological target: T2, Corticotropin-releasing factor receptor 2/Corticotropin-releasing factor-binding protein (Homo sapiens, UniProt P24387+Q13324); test: activators of CRF receptor 2 with binding protein – uHTS hits, confirmation (AID 602473); type: functional; conditions: read-out: EC50_Mean
T2 sequence (Q13324 whole entry): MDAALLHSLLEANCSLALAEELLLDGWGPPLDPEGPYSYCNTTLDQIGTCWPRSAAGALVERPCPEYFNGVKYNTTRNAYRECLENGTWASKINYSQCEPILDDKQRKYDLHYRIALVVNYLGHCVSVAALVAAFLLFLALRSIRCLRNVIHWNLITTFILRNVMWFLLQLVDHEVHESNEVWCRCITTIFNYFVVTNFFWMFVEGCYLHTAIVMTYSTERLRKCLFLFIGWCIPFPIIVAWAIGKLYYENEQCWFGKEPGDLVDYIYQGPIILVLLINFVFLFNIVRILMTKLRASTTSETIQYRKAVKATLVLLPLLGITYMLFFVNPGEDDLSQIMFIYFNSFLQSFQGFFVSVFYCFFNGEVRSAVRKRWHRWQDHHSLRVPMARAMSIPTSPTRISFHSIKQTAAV
T2 sequence (P24387 whole entry): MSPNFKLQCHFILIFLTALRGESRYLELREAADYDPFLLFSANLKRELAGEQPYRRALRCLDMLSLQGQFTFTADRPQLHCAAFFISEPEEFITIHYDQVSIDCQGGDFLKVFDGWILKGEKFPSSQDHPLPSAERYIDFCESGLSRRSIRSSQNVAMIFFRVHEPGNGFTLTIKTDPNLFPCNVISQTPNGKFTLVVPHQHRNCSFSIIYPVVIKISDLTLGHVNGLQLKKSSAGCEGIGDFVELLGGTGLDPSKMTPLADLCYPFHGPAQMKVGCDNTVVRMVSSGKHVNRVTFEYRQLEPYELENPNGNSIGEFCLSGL

[10] = biological target: T2, Corticotropin-releasing factor receptor 2/Corticotropin-releasing factor-binding protein; test: Dose Response confirmation of uHTS hits for small molecule antagonists of the CRF-binding protein and CRF-R2 receptor complex.; type: functional; conditions: read-out: IC50_Mean

Cytochrome P450 3A4, sequence (P08684 whole entry): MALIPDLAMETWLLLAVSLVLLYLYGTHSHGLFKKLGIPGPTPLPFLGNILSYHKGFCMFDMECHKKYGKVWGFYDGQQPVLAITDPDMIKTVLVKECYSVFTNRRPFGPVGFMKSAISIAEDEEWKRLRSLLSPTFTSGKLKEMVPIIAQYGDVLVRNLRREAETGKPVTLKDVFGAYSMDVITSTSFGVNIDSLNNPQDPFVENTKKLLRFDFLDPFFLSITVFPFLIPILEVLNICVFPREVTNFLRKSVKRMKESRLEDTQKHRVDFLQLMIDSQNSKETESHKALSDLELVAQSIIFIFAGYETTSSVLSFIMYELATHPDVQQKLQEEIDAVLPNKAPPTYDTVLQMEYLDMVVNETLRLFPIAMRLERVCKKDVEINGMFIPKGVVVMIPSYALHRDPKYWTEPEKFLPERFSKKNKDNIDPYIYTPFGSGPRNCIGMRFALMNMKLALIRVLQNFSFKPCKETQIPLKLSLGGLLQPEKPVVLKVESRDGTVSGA

SMILES	CC50 [1]	AC50 [2]	IC50 [3]	EC50 [4]	AC50 [5]	EC50 [6]	IC50 [7]	IC50 [8]	EC50 [9]	IC50 [10]
COc1ccc(-c2nn(-c3ccccc3)cc2/C=N/NC(=O)c2ccc(Br)o2)cc1	18.8 µM (active)	15.8 µM (inconclusive)	7.01 µM (active)							
C=CCOc1ccc(/C=C2\SC(=S)N(NS(=O)(=O)c3ccc(C)cc3)C2=O)cc1	25 µM (active)			> 160 µM (inactive)	11.7 µM (active)	1.66 µM (active)	32.9 µM (active)			
COc1ccc(-c2csc(NC(=O)CSc3nc(SC)ns3)n2)cc1								4.64 µM (active)	> 53 µM (inactive)	1.75 µM (active)
